Laboratory results: patent US10472341B2, “Bicyclic tetrahydrothiazepine derivatives useful for the treatment of neoplastic and/or infectious diseases” (APEIRON BIOLOGICS AG, priority 2015, dated 2019)

Experiments:
[1] = system: NK cells & K562 leukemia cells; experiment: NK cells alone or in co-culture with K562 leukemia cells: IFN-gamma, TNF-alpha, granzyme, CD25+CD69+; assay type: cell-based, human
Method: Isolated PBMCs, NK cells or CD8 positive cells were plated in Xvivo medium at 1.5*10^5 cells per in 96 well culture plates in the presence of 0.3*10^4 tumor cells where indicated. Cytokine secretion was determined by ELISA, immune cell activation (using Beckman-Coulter Abs CD25-PC5, CD69-PC7), cell viability and numbers by flow cytometry (Beckman-Coulter FC500 or Gallios) using 7-AAD exclusion as criterion for living cells. One of the physiological functions of NK cells in anti-tumor immunity is the recognition and destruction of tumor cells that have a low expression of MHC-molecules, thus avoiding recognition by CD8 T cells. Downregulation of MHC molecules is often actively mediated by an infecting virus or occurs during development of malignant neoplasms. The […] leukemia cell line expresses only very low amounts of MHC-molecules and thus is often used as a model system to investigate anti-tumor NK cell reactivity. NK cells were isolated from PBMCs and were incubated with and without compounds, either alone or in co-culture with K562 leukemia cells.

K562 leukemia cells = experiment: Living tumor cells (K562) in the presence of NK cells; assay type: cell-based, human
Method: Isolated PBMCs, NK cells or CD8 positive cells were plated in Xvivo medium at 1.5*10^5 cells per in 96 well culture plates in the presence of 0.3*10^4 tumor cells where indicated. Cytokine secretion was determined by ELISA, immune cell activation (using Beckman-Coulter Abs CD25-PC5, CD69-PC7), cell viability and numbers by flow cytometry (Beckman-Coulter FC500 or Gallios) using 7-AAD exclusion as criterion for living cells. NK cells were isolated from PBMCs and were incubated with and without compounds, either alone or in co-culture with K562 leukemia cells.

For `CC(C)NC(=O)c1cc2c(cc1F)S(=O)(=O)C[C@H](N)C(=O)N2Cc1ccc(Cl)cc1.Cl` [Example 77, (3R)-3-amino-5-[(4-chlorophenyl)methyl]-8-fluoro-1,1,4-trioxo-N-(propan-2-yl)-2,3,4,5-tetrahydro-1λ^6,5-benzothiazepine-7-carboxamide hydrochloride], the “IFN-gamma [ng/ml] Avg” value ([1]; 0.03 μM, NK cells & K562) was 2.20 ng/mL, the “TNF-alpha [ng/ml] avg” value ([1]; 0.03 μM, NK cells & K562) was 0.08 ng/mL and the “IFN-gamma [ng/ml] Avg” value ([1]; 0.03 μM, NK cells only) was “below”. The “TNF-alpha [ng/ml] avg” value ([1]; 0.03 μM, NK cells only) was “below”, the “IFN-gamma [ng/ml] Avg” value ([1]; 0.1 μM, NK cells & K562) was 2.38 ng/mL and the “TNF-alpha [ng/ml] avg” value ([1]; 0.1 μM, NK cells & K562) was 0.11 ng/mL. The “IFN-gamma [ng/ml] Avg” value ([1]; 0.1 μM, NK cells only) was “below”, the “TNF-alpha [ng/ml] avg” value ([1]; 0.1 μM, NK cells only) was “below” and the “IFN-gamma [ng/ml] Avg” value ([1]; 0.3 μM, NK cells & K562) was 6.06 ng/mL. For the same molecule, the “TNF-alpha [ng/ml] avg” value ([1]; 0.3 μM, NK cells & K562) was 0.19 ng/mL, the “IFN-gamma [ng/ml] Avg” value ([1]; 0.3 μM, NK cells only) was “below” and the “TNF-alpha [ng/ml] avg” value ([1]; 0.3 μM, NK cells only) was “below”. The “IFN-gamma [ng/ml] Avg” value ([1]; 1 μM, NK cells & K562) was 11.75 ng/mL, the “TNF-alpha [ng/ml] avg” value ([1]; 1 μM, NK cells & K562) was 0.34 ng/mL and the “IFN-gamma [ng/ml] Avg” value ([1]; 1 μM, NK cells only) was “below”. The “TNF-alpha [ng/ml] avg” value ([1]; 1 μM, NK cells only) was “below”, the “IFN-gamma [ng/ml] Avg” value ([1]; 3 μM, NK cells & K562) was 12.11 ng/mL and the “TNF-alpha [ng/ml] avg” value ([1]; 3 μM, NK cells & K562) was 0.47 ng/mL. For the same molecule, the “IFN-gamma [ng/ml] Avg” value ([1]; 3 μM, NK cells only) was “below”, the “TNF-alpha [ng/ml] avg” value ([1]; 3 μM, NK cells only) was “below” and the “IFN-gamma [ng/ml] Avg” value ([1]; 10 μM, NK cells & K562) was 17.15 ng/mL. For the same molecule, the “TNF-alpha [ng/ml] avg” value ([1]; 10 μM, NK cells & K562) was 0.57 ng/mL, the “IFN-gamma [ng/ml] Avg” value ([1]; 10 μM, NK cells only) was “below” and the “TNF-alpha [ng/ml] avg” value ([1]; 10 μM, NK cells only) was “below”. The “IFN-gamma [ng/ml] Avg” value ([1]; 30 μM, NK cells & K562) was 19.12 ng/mL, the “TNF-alpha [ng/ml] avg” value ([1]; 30 μM, NK cells & K562) was 0.70 ng/mL and the “IFN-gamma [ng/ml] Avg” value ([1]; 30 μM, NK cells only) was “below”. The “TNF-alpha [ng/ml] avg” value ([1]; 30 μM, NK cells only) was “below”, the “CD25+CD69+” value ([1]; NK cells & K562, 0.03 μM) was 1.77 % gated and the Granzyme ([1]; NK cells & K562, 0.03 μM) was 0.48 ng/mL. For the same molecule, the “CD25+CD69+” value ([1]; NK cells & K562, 0.1 μM) was 2.29 % gated, the Granzyme ([1]; NK cells & K562, 0.1 μM) was 0.52 ng/mL and the “CD25+CD69+” value ([1]; NK cells & K562, 0.3 μM) was 4.44 % gated. For the same molecule, the Granzyme ([1]; NK cells & K562, 0.3 μM) was 0.68 ng/mL, the “CD25+CD69+” value ([1]; NK cells & K562, 1 μM) was 10.74 % gated and the Granzyme ([1]; NK cells & K562, 1 μM) was 0.90 ng/mL. For the same molecule, the “CD25+CD69+” value ([1]; NK cells & K562, 3 μM) was 13.55 % gated, the Granzyme ([1]; NK cells & K562, 3 μM) was 1.15 ng/mL and the “CD25+CD69+” value ([1]; NK cells & K562, 10 μM) was 17.81 % gated. For the same molecule, the Granzyme ([1]; NK cells & K562, 10 μM) was 1.41 ng/mL, the “CD25+CD69+” value ([1]; NK cells & K562, 30 μM) was 25.06 % gated and the Granzyme ([1]; NK cells & K562, 30 μM) was 2.12 ng/mL. The “production of IFN-gamma and TNF-alpha” value ([1]; NK cells in co-culture with K562 leukemia cells) was “enhanced production of both cytokines specifically upon tumor cell contact”, the “enhancement of IFN-gamma and TNF-alpha production” value ([1]; NK cells in the absence of tumor cells) was “such effect was not detected in the absence of tumor cells” and the “CD25+CD69+” value ([1]; NK cells only, 0.03 μM) was 0.01 % gated. The Granzyme ([1]; NK cells only, 0.03 μM) was 0.08 ng/mL, the “CD25+CD69+” value ([1]; NK cells only, 0.1 μM) was 0.02 % gated and the Granzyme ([1]; NK cells only, 0.1 μM) was 0.06 ng/mL. For the same molecule, the “CD25+CD69+” value ([1]; NK cells only, 0.3 μM) was 0.05 % gated, the Granzyme ([1]; NK cells only, 0.3 μM) was 0.08 ng/mL and the “CD25+CD69+” value ([1]; NK cells only, 1 μM) was 0.15 % gated. The Granzyme ([1]; NK cells only, 1 μM) was 0.05 ng/mL, the “CD25+CD69+” value ([1]; NK cells only, 3 μM) was 0.24 % gated and the Granzyme ([1]; NK cells only, 3 μM) was 0.05 ng/mL. The “CD25+CD69+” value ([1]; NK cells only, 10 μM) was 0.46 % gated, the Granzyme ([1]; NK cells only, 10 μM) was 0.10 ng/mL and the “CD25+CD69+” value ([1]; NK cells only, 30 μM) was 0.95 % gated. It also gave a Granzyme ([1]; NK cells only, 30 μM) of 0.16 ng/mL, a Living tumor cells (K562 leukemia cells; K562 only, 0.3 μM) of 31786.33 and a Living tumor cells (K562 leukemia cells; K562 only, 3 μM) of 21495.00. For the same molecule, the Living tumor cells (K562 leukemia cells; K562 only, 30 μM) was 22503.00, the Living tumor cells (K562 leukemia cells; NK cells & K562, 0.01 μM) was 696.00 and the Living tumor cells (K562 leukemia cells; NK cells & K562, 0.03 μM) was 636.00. The Living tumor cells (K562 leukemia cells; NK cells & K562, 0.1 μM) was 567.00, the Living tumor cells (K562 leukemia cells; NK cells & K562, 0.3 μM) was 589.00 and the Living tumor cells (K562 leukemia cells; NK cells & K562, 1 μM) was 520.33. For the same molecule, the Living tumor cells (K562 leukemia cells; NK cells & K562, 3 μM) was 406.33, the Living tumor cells (K562 leukemia cells; NK cells & K562, 10 μM) was 398.33 and the Living tumor cells (K562 leukemia cells; NK cells & K562, 30 μM) was 408.33.
